In patent US20110038948A1, “Methods of Reducing the Production of Reactive Oxygen Species and Methods of Screening or Identifying Compounds and Compositions that Reduce the Production of Reactive Oxygen Species” (UNIVERSITY OF TENNESSEE RESEARCH FOUNDATION, priority 2005, published 2011):

What was measured:
adiponectin = assay: Adiponectin expression in 3T3-L1 adipocytes; type: cell-based, mouse; conditions: 48 h
Experimental: 3T3-L1 pre-adipocytes were incubated at a density of 8000 cells/cm^2 (10 cm^2 dish) and grown in Dulbecco's modified Eagle's medium (DMEM) containing 10% FBS and antibiotics (adipocyte medium) at 37° C. in 5% CO2 in air. Confluent pre-adipocytes were induced to differentiate with a standard differentiation medium consisting of DMEM-F10 (1:1, vol/vol) medium supplemented with 1% fetal bovine serum (FBS), 1 μM dexamethasone, isobutylmethylxanthine (IBMX) (0.5 mM) and antibiotics (1% Penicillin-Streptomycin). Pre-adipocytes were maintained in this differentiation medium for 3 days and subsequently cultured in adipocyte medium. Cultures were re-fed every 2-3 days to allow 90% cells to reach fully differentiation before conducting chemical treatment. […] Cell viability was measured via trypan blue exclusion. Adipocyte and muscle 18s, TNFα, IL-6, IL-8, IL-15 and adiponectin were quantitatively measured using a smart cycler real-time PCR system (Cepheid, Sunnyvale, Calif.) with a TaqMan 1000 Core Reagent Kit (Applied Biosystems, Branchburg, N.J.). […] Reactions of quantitative RT-PCR for standards and unknown samples were also performed according to the instructions of Smart Cycler System (Cepheid, Sunnyvale, Calif.) and TaqMan Real Time PCR Core Kit (Applied Biosystems, Branchburg, N.J.). The mRNA quantitation for each sample was further normalized using the corresponding 18s quantitation.

3T3-L1 adipocytes = assay: Intracellular ROS generation in cultured adipocytes (H2-DCFDA); type: cell-based, mouse; conditions: compound plus glucose 30 mmol/L, 48 hours
Experimental: 3T3-L1 preadipocytes were incubated at a density of 8000 cells/cm^2 (10 cm^2 dish) and grown in Dulbecco's modified Eagle's medium (DMEM) containing 10% FBS and antibiotics (adipocyte medium) at 37° C. in 5% CO2 in air. Confluent preadipocytes were induced to differentiate with a standard differentiation medium consisting of DMEM-F10 (1:1, vol/vol) medium supplemented with 1% FBS, 1 μM dexamethasone, IBMX (0.5 mM) and antibiotics (1% Penicillin-Streptomycin). Preadipocytes were maintained in this differentiation medium for 3 days and subsequently cultured in adipocyte medium. Cultures were re-fed every 2-3 days to allow 90% of cells to reach full differentiation before conducting chemical treatment. Chemicals were freshly diluted in adipocyte medium before treatment. Cells were washed with fresh adipocyte medium, re-fed with medium containing the different treatments, and incubated at 37° C. in 5% CO2 in air before analysis. Cell viability was measured via trypan blue exclusion. […] Cells were loaded with H2-DCFDA (2 μmol/L) 30 minute before the end of the incubation period (48 h). After washing twice with PBS, cells were scraped and disrupted by sonication on ice (20 s). Fluorescence (emission 543 nm or 527 nm) and DNA content were then measured as described previously. The intensity of fluorescence was expressed as arbitrary units per ng DNA.

IL-6 = IL-6 expression in RAW 264 macrophages; type: cell-based; conditions: co-culture with differentiated 3T3-L1 adipocytes
Experimental: RAW 264 macrophages and 3T3-L1 preadipocytes (American Type Culture Collection) were incubated at a density of 8000 cells/cm2 (10 cm2 dish) and grown in Dulbecco's modified Eagle's medium (DMEM) containing 10% FBS and antibiotics (adipocyte medium) at 37° C. in 5% CO2 in air. Confluent 3T3-L1 preadipocytes were induced to differentiate with a standard differentiation medium consisting of DMEM-F10 (1:1, vol/vol) medium supplemented with 1% FBS, 1 μM dexamethasone, IBMX (0.5 mM) and antibiotics (1% Penicillin-Streptomycin). Preadipocytes were maintained in this differentiation medium for 3 days and subsequently cultured in adipocyte medium. […]
Cells were washed with fresh adipocyte medium, re-fed with medium containing the indicated treatments, and incubated at 37° C. in 5% CO2 for 48 hours before analysis. Cell viability was measured via trypan blue exclusion.
Human adipocytes (Zen-Bio, Inc.), 3T3-L1 adipocytes, RAW264 macrophages were obtained and co-cultured by using transwell inserts with 0.4 μm porous membranes (Corning) to separate adipocytes and macrophages. All data are expressed as mean±SEM. Data were evaluated for statistical significance by analysis of one-way or two-way variance (ANOVA; means with different letter differ, p<0.05). […]

| SMILES | effect on adiponectin production (adiponectin) | effect on high glucose induced ROS production (3T3-L1 adipocytes) | effect on IL-6 expression in macrophages (IL-6) |
| --- | --- | --- | --- |
| OO [H2O2, hydrogen peroxide] | without significant effect |  |  |
| C=C1/C(=C\C=C2/CCC[C@]3(C)[C@@H]([C@H](C)CCCC(C)(C)O)CC[C@@H]23)C[C@@H](O)C[C@@H]1O [calcitriol, 1,25-(OH)2-D3] |  | greater stimulation of ROS production than either glucose alone or glucose plus GDP | further enhanced |
